EC50 data for 13 compounds are collected here from US7399777B2, “Diarylcycloalkyl derivatives, processes for their preparation and their use as pharmceuticals” (Sanofi-Aventis Deutschland GmbH, priority 2001, dated 2008).

This experiment has as its target T1, human PPARα (Homo sapiens, UniProt Q07869).
T1 construct: expressed in transfected cells; host or cells: HEK cells (human embryo kidney), stably transfected with pcDNA3-GR-GAL4-humanPPARα and the luciferase reporter pdeltaMG4LZ
T1 sequence (Q07869 167-468): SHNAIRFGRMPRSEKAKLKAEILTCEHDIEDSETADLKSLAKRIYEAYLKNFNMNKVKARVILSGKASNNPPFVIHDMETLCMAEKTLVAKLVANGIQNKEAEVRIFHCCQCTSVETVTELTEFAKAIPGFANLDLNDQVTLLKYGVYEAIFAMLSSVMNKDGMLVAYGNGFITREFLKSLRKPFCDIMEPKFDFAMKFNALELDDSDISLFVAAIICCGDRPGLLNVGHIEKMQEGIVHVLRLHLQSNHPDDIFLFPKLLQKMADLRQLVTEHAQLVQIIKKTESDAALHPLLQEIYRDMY
As to the kind of experiment: PPARα reporter cell line assay (stably transfected HEK cells, GR-GAL4-PPARα fusion protein, firefly luciferase reporter). Conditions: agonist activity in HEK PPARα reporter cell line; 24 h incubation; luciferase luminescence. It is filed as cell-based. The source says: To analyze the effectiveness of substances which bind to human PPARα, activating it in agonistic manner, a stable transfected HEK cell line (HEK=human embryo kidney) designated here as “PPARα reporter cell line” is used. It contains two genetic elements, a firefly luciferase reporter element and a PPARα fusion protein (GR-GAL4-PPARα) which controls the expression of the firefly luciferase reporter element in a PPARα ligand dependent way.
The PPARα reporter cell line was established in two steps: First, the firefly luciferase reporter element was constructed and stably transfected into HEK cells. Five DNA binding sites for the yeast transcription factor GAL4 (five repetitions of the sequence 5′-CGGAGTACTGTCCTCCGAG-3′) (SEQ ID NO:1) were cloned 5′ upstream of a 68 bp minimal RNA polymerase II promoter from the GR mouse mammary tumor virus long terminal repeat (accession # V01175) providing a CCAAT-box as well as a TATA-element. Cloning and sequencing was done as described by Sambrook J. et. al. (Molecular cloning, Cold Spring Harbor Laboratory Press, 1989). The complete Photinus pyralis luciferase gene (accession # M 15077) was cloned 3′ downstream of the GAL4 binding sites and the MMTV minimal promoter. The firefly luciferase reporter element consisting of 5 GAL4 binding sites, the MMTV minimal promoter and the full length luciferase gene was recloned into a plasmid backbone harboring a Zeozin resistence gene leading to plasmid “pdeltaMG4LZ”. This vector was transfected in HEK cells as described by Ausubel, F. M. et al. (Current protocols in molecular biology, Vol. 1-3, John Wiley & Sons, Inc., 1995). Stable clones have been selected using Zeozin as a selection agent (0.5 mg/ml).
In a second step, the PPARα fusion protein (GR-GAL4-PPARα) that controls expression of the firefly luciferase reporter element, was stably integrated in this cell background. For this purpose the cDNAs coding for the N-terminal 76 amino acids of the human glucocorticoid receptor (“GR”, accession # P04150) have been linked to amino acids 1-147 of the yeast GAL4-protein (accession # P04386) followed by the ligand binding domain of humanPPARα (amino acids S167-Y468, accession # S74349). The GR-GAL4-human PPARα construct was cloned into plasmid pcDNA3 (Invitrogen) were its expression is driven constitutively by the Cytomegalovirus promoter. The plasmid pcDNA3-GR-GAL4-humanPPARα was transfected in a stable HEK-cell clone that already contained the firefly luciferase reporter element described above. A double-transfected cell line containing both, the firefly luciferase reporter element as well as the GR-GAL4-humanPPARα fusion protein, has been selected on medium supplemented with Zeozin (0.5 mg/ml) and G418 (0.5 mg/ml).
The activity of PPARα agonists is determined in a three day test, described below:
The PPARα reporter cell line is cultivated up to 80% confluence in DMEM medium (# 41965-039, Life Technologies) with the following additives: 10% cs-FCS (fetal calf serum, #SH-30068.03, Hyclone), antibiotics (0.5 mg/ml of zeozin [#R250-01, Invitrogen], 0.5 mg/ml of G418 [#10131-019, Life Technologies], 1% penicillin streptomycin solution [#15140-031, Life Technologies]) and 2 mM of L-glutamine (#25030-032, Life Technologies). Cultivation is carried out in standard cell culture bottles (# 33111, Becton Dickinson) in a cell culture incubator at 37° C. and 5% CO2. The 80% confluent cells are washed once with 30 ml of PBS (#14190-094, Life Technologies), treated with 2 ml of trypsin solution (#25300-054, Life Technologies) at 37° C. for 2 min, taken up in 5 ml of the medium described above and counted in a cell counter. After dilution to 500,000 cells/ml, in each case 35,000 cells are sown into each well of a 96-well microtiter plate having a clear plastic bottom (#3610, Coming Costar). The plates are incubated in a cell incubator at 37° C. and 5% CO2 for 24 h.
The PPARα agonists to be tested are dissolved in DMSO at a concentration of 10 mM. […]
(In a reporter assay the amount or activity of a reporter protein is the signal.)
In turn, `Cc1cccc(COC2C=CC(OCc3coc(-c4ccc(F)cc4)n3)C2)c1C(=O)O` (stereo not shown) [XIX, 2-{4-[2-(4-Fluorophenyl)oxazol-4-ylmethoxy]cyclopent-2-enyloxymethyl}-6-methylbenzoic acid] showed an EC50 of 16 nM.
Regarding `Cc1ccc(-c2nc(CO[C@@H]3CCC[C@H](OCc4cccc(C)c4C(=O)O)C3)c(C)o2)cc1` [LXIII, 2-Methyl-6-[1S,3R-3-(5-methyl-2-p-tolyloxazol-4-ylmethoxy)cyclohexyloxymethyl]benzoic acid], the midpoint of the response, the EC50, lay at 0.56 nM.
Turning to `Cc1cccc(-c2nc(CO[C@H]3CCC[C@@H](OCc4cccc(C)c4C(=O)O)C3)c(C)o2)c1` [LIII, 2-{1R,3S-3-[2-(3-Methylphenyl)-5-methyloxazol-4-ylmethoxy]cyclohexyloxymethyl}-6-methylbenzoic acid], the concentration for a half-maximal effect (EC50) came to 0.4 nM.
`Cc1cccc(CO[C@@H]2CCC[C@H](OCc3nc(-c4cccc(Cl)c4)oc3C)C2)c1C(=O)O` [LI, 2-{1R,3S-3-[2-(3-Chlorophenyl)-5-methyloxazol-4-ylmethoxy]cyclohexyloxymethyl}-6-methylbenzoic acid]: the EC50 turned out to be 0.31 nM. This EC50 and that of the compound before are within 1.5-fold of each other.
Compound `Cc1cccc(CO[C@@H]2CCC[C@H](OCc3nc(-c4ccc(OC(F)(F)F)cc4)oc3C)C2)c1C(=O)O` [LXX, 2-methyl-6-[(1R,3S)-3-(5-methyl-2-(4-trifluoromethoxyphenyl)-oxazol-4-ylmethoxy)-cyclohexyloxymethyl]-benzoic acid] displayed a 50% effective concentration (EC50) of 0.28 nM.
Turning to `Cc1cccc(CC[C@@H]2CCC[C@H](OCc3coc(-c4ccc(F)cc4)n3)C2)c1C(=O)O` (racemic) [XXVIII, rac-cis-2-(2-{3-[2-(4-Fluorophenyl)oxazol-4-ylmethoxy]cyclohexyl}ethyl)-6-methylbenzoic acid], a half-maximal response (EC50) required 0.67 nM.
For `Cc1ccc(-c2nc(CO[C@H]3CCC[C@@H](OCc4cccc(C)c4C(=O)O)C3)c(C)o2)cc1C` [LIV, 2-{1R,3S-3-[2-(3,4-Dimethylphenyl)-5-methyloxazol-4-ylmethoxy]cyclohexyloxymethyl}-6-methylbenzoic acid], it took 0.08 nM to reach a half-maximal effect (EC50).
`Cc1cccc(CO[C@@H]2CCC[C@H](OCc3nc(-c4cccc(OC(F)(F)F)c4)oc3C)C2)c1C(=O)O` [LVII, 2-{1R,3S-3-[2-(3-Trifluoromethoxyphenyl)-5-methyloxazol-4-ylmethoxy]cyclohexyloxymethyl}-6-methylbenzoic acid] yielded an EC50 of 0.13 nM.
`Cc1cccc(CO[C@H]2CCC[C@@H](OCc3coc(-c4ccccc4)n3)C2)c1C(=O)O` (single isomer, unassigned) [VI, cis-2-Methyl-6-[3-(2-phenyloxazol-4-ylmethoxy)cyclohexyloxymethyl]benzoic acid] registered an EC50 of 0.18 nM.
As for “2-{3-[2-(4-Fluorophenyl)oxazol-4-ylmethoxy]cyclohexyloxy}-6-methylbenzoic acid [Example I]”, the half-maximal effective concentration (EC50) worked out at 1 nM.
`COc1cccc(-c2nc(CO[C@H]3CCC[C@@H](OCc4cccc(C)c4C(=O)O)C3)c(C)o2)c1` [IL, 2-{1R,3S-3-[2-(3-Methoxy-phenyl)-5-methyl-oxazol-4-ylmethoxy]-cyclohexyloxymethy}-6-methylbenzoic acid]: the EC50 was 0.52 nM. Compared with the last compound, the EC50 is about 1.9-fold lower.
As to `COc1ccc(-c2nc(CO[C@H]3CCC[C@@H](OCc4cccc(C)c4C(=O)O)C3)c(C)o2)cc1C` [LXXII, 2-[(1R,3S)-3-(2-(4-methoxy-3-methylphenyl)-5-methyl-oxazol-4-ylmethoxy)-cyclohexyloxymethyl]-6-methyl-benzoic acid], the half-maximal effective concentration (EC50) came to 0.24 nM.
With `Cc1cccc(CO[C@@H]2CCC[C@H](OCc3nc(-c4cccc(Br)c4)oc3C)C2)c1C(=O)O` [LXVI, 2-{1R,3S-3-[2-(3-Bromophenyl)-5-methyloxazol-4-ylmethoxy]cyclohexyloxymethyl}-6-methylbenzoic acid], a half-maximal effect (EC50) was put at 0.48 nM.

For orientation: EC50 means the concentration at which the effect is half-maximal. High values mean a need for much substance, low ones an effect from little substance.
